Among the test systems are HOP-92; RPMI-8226; MOLT-4; SF-295; SK-MEL-5; Malme-3M; HOP-62; M14; CAKI-1; HT-29; HCT-15; IGROV-1; Hs-578T; SK-MEL-2; A549; HCC 2998; KM12; OVCAR-8; SW-620; SK-OV-3.
Holding throughout (test): NCI anticancer screen, dose series, 48 h

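48-hour exposure; five concentrations; linearly interpolated endpoints. GI50 marks 50% less growth.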 The source made the active and inactive calls. Rule as the data show it: active = GI50 up to about 1.1 µM and inactive = higher.

Regarding `Cc1cc(=O)oc2c(CN(CCCl)CCCl)c(O)ccc12`, the GI50 is > 100 µM (inactive) in the assay on HOP-92; 19.1 µM (inactive) in the assay on RPMI-8226; 4.99 µM (inactive) in the assay on MOLT-4; 11.8 µM (inactive) in the assay on SF-295; 16.6 µM (inactive) in the assay with SK-MEL-5; 34.1 µM (inactive) in the assay with Malme-3M. Further, the GI50 was 26.5 µM (inactive) in the assay on HOP-62; 39.8 µM (inactive) in the assay on M14; 6.78 µM (inactive) in the assay with CAKI-1; 22.7 µM (inactive) with HT-29; 56.9 µM in the assay with HCT-15; 55.7 µM (inactive) in the assay with IGROV-1. Further, the GI50 was 72.3 µM (inactive) in the assay with Hs-578T; > 100 µM (inactive) with SK-MEL-2; 27.5 µM (inactive) in the assay with A549; 28.4 µM (inactive) with HCC 2998; 78.7 µM (inactive) in the assay with KM12; 54.6 µM (inactive) in the assay with OVCAR-8. Besides, the GI50 in the assay with SW-620 was 14 µM (inactive).

Consider `CCOC(=O)Cn1sc2ncc([N+](=O)[O-])cc2c1=O`, for which the GI50 with HOP-92 is 13.3 µM (inactive); with RPMI-8226, 8 µM (inactive); with MOLT-4 it was 2.86 µM (inactive); in the assay with SF-295, 18.9 µM (inactive); in the assay on SK-MEL-5 it was 27.5 µM (inactive); in the assay with Malme-3M it was 17.9 µM (inactive). Further, the GI50 with SK-OV-3 was 18.3 µM (inactive); in the assay with HOP-62 it was 15.4 µM (inactive); with HT-29 it was 16.2 µM (inactive); in the assay on HCT-15, 16.4 µM; in the assay with IGROV-1, 13.2 µM (inactive); with Hs-578T, 41 µM (inactive). In addition, the GI50 is 22.2 µM (inactive) with SK-MEL-2; 19.3 µM (inactive) in the assay on A549; 16.4 µM (inactive) with HCC 2998; 18.5 µM (inactive) in the assay on KM12; 16.3 µM (inactive) with OVCAR-8; 16.1 µM (inactive) in the assay on SW-620.

As to `CC(C)CC1C(=O)NCCC(NC(=O)C(Cc2ccc(OC(C)(C)C)cc2)NC(=O)OC(C)(C)C)C(=O)NC(Cc2ccccc2)C(=O)NC(Cc2ccccc2)NC1=O` (centres undefined), the GI50 is 11.2 µM (inactive) in the assay on HOP-92; 9.75 µM (inactive) in the assay with RPMI-8226; 1.51 µM (inactive) in the assay on MOLT-4; 5.75 µM (inactive) with SF-295; 31 µM (inactive) in the assay with SK-MEL-5; 13.6 µM (inactive) in the assay with Malme-3M. The GI50 in the assay on SK-OV-3 is 22 µM (inactive); with HOP-62 it was 19.5 µM (inactive); with M14 it was 12.6 µM (inactive); with CAKI-1 it was 10.8 µM (inactive); in the assay with HT-29 it was 3.67 µM (inactive); with HCT-15, greater than 100 µM. The GI50 was 16 µM (inactive) in the assay on IGROV-1; 13.4 µM (inactive) in the assay on Hs-578T; 17.3 µM (inactive) in the assay with HCC 2998; 43.6 µM (inactive) with KM12; 5.68 µM (inactive) with OVCAR-8; 2.54 µM (inactive) in the assay on SW-620.

As to `O=C1C[C@@H](c2ccc(O)cc2)[C@@]2(O1)C(=O)O[C@H]([C@@H](O)CO)[C@@H]2O`, the GI50 in the assay with HOP-92, in the assay with RPMI-8226, in the assay on MOLT-4, in the assay on SF-295, with SK-MEL-5 and in the assay on Malme-3M was > 100 µM (inactive) throughout. For the same molecule, the GI50 in the assay on SK-OV-3 is > 100 µM (inactive); in the assay with M14, > 100 µM (inactive); in the assay with CAKI-1 it was > 100 µM (inactive); in the assay on HT-29 it was > 100 µM (inactive); in the assay with HCT-15 it was greater than 100 µM; in the assay with IGROV-1, > 100 µM (inactive). Besides, the GI50 with Hs-578T, with SK-MEL-2, in the assay with A549, in the assay on HCC 2998, in the assay with KM12 and in the assay with OVCAR-8 was > 100 µM (inactive) in each case. Further, in the assay on SW-620, the GI50 is > 100 µM (inactive).

Consider `CCOC(=O)C(C)(C)/C=C\C(Cl)=C(Cl)Cl`, for which the GI50 in the assay on HOP-92, in the assay with RPMI-8226, in the assay with MOLT-4, in the assay with SF-295, in the assay with SK-MEL-5 and in the assay on Malme-3M was > 100 µM (inactive) each time. The GI50 with SK-OV-3, in the assay with HOP-62, in the assay on M14, with CAKI-1, in the assay with HT-29 and in the assay with IGROV-1 was > 100 µM (inactive) throughout. The GI50 in the assay on Hs-578T, in the assay with A549, in the assay on HCC 2998, in the assay on KM12, with OVCAR-8 and in the assay on SW-620 was > 100 µM (inactive) each time.

Regarding `Cn1cnc(C(N)=[Se])c1N`, the GI50 in the assay on HOP-92 is 6.56 µM (inactive); with RPMI-8226 it was 2.94 µM (inactive); in the assay on SF-295, 0.244 µM (active); in the assay on SK-MEL-5, 3.21 µM (inactive); in the assay on Malme-3M, 2.69 µM (inactive); with SK-OV-3, 1.25 µM (inactive). Also, the GI50 in the assay with HOP-62 is 2.46 µM (inactive); with M14 it was 4.44 µM (inactive); with CAKI-1, 3.27 µM (inactive); in the assay on HT-29, 5.35 µM (inactive); in the assay with HCT-15, 3.63 µM; in the assay with IGROV-1, 1.33 µM (inactive). Moreover, the GI50 in the assay on Hs-578T is 3.74 µM (inactive); in the assay on SK-MEL-2, 2.27 µM (inactive); in the assay with A549, 1.71 µM (inactive); with HCC 2998, 15.4 µM (inactive); with KM12, 2.33 µM (inactive); with OVCAR-8, 1.92 µM (inactive). The GI50 with SW-620 is 4.19 µM (inactive).

Consider `Clc1cccc(/C=N/C23CC4CC(CC(C4)C2)C3)c1Cl`, for which the GI50 in the assay with HOP-92, in the assay on RPMI-8226, in the assay with SF-295, in the assay with SK-MEL-5, with Malme-3M and with SK-OV-3 was > 10 µM (inactive) in each case. Moreover, the GI50 in the assay on HOP-62 is > 10 µM (inactive); with M14, > 10 µM (inactive); in the assay with CAKI-1, > 10 µM (inactive); in the assay on HT-29, > 10 µM (inactive); in the assay on HCT-15, greater than 10 µM; in the assay on IGROV-1 it was > 10 µM (inactive). Also, the GI50 with Hs-578T, in the assay with SK-MEL-2, with A549, with HCC 2998, with KM12 and in the assay with OVCAR-8 was > 10 µM (inactive) throughout. The GI50 in the assay on SW-620 is > 10 µM (inactive).

For the molecule `CCOC(=O)CCC(NC(=O)c1ccc(Oc2nc3c(N)cc(C(F)(F)F)cc3nc2-c2ccccc2)cc1)C(=O)OCC` (centres undefined), the GI50 was 56.8 µM (inactive) with HOP-92; > 45.9 µM (inactive) in the assay on RPMI-8226; > 100 µM (inactive) with MOLT-4; 11 µM (inactive) in the assay with SF-295; 17.6 µM (inactive) in the assay on SK-MEL-5; 12.4 µM (inactive) in the assay with Malme-3M. In addition, the GI50 was 13.5 µM (inactive) with SK-OV-3; 6.98 µM (inactive) in the assay with HOP-62; 47 µM (inactive) in the assay on M14; 2.82 µM (inactive) with CAKI-1; 2.43 µM (inactive) in the assay with HT-29; greater than 100 µM in the assay on HCT-15. Further, the GI50 in the assay on IGROV-1 was 33.4 µM (inactive); in the assay on Hs-578T, 11.7 µM (inactive); with A549, 7.78 µM (inactive); in the assay with HCC 2998, 67.8 µM (inactive); in the assay with KM12 it was 19.5 µM (inactive); in the assay with OVCAR-8, 1.09 µM (active). For the same molecule, the GI50 in the assay with SW-620 was > 100 µM (inactive).

Turning to `N#Cc1nc(-c2ccccn2)oc1N`, the GI50 in the assay with HOP-92, with RPMI-8226, in the assay with MOLT-4, in the assay on SF-295, with SK-MEL-5 and in the assay on Malme-3M was > 100 µM (inactive) each time. The GI50 with SK-OV-3 is > 100 µM (inactive); in the assay on HOP-62, > 100 µM (inactive); in the assay on CAKI-1, > 100 µM (inactive); in the assay with HT-29 it was > 100 µM (inactive); in the assay with HCT-15 it was greater than 100 µM; in the assay on IGROV-1, > 100 µM (inactive). Moreover, the GI50 in the assay on Hs-578T, with SK-MEL-2, in the assay on HCC 2998, in the assay with KM12 and with SW-620 was > 100 µM (inactive) in each case.

Consider `COC(=O)c1ccc(NCc2cc(O)c3ccccc3c2O)cc1`, for which the GI50 in the assay with HOP-92 was 2.55 µM (inactive); with RPMI-8226, 3.45 µM (inactive); with MOLT-4, 2.81 µM (inactive); in the assay on SF-295 it was 7.5 µM (inactive); with SK-MEL-5, 1.51 µM (inactive); in the assay on Malme-3M, 2.56 µM (inactive). For the same molecule, the GI50 is 16.8 µM (inactive) with SK-OV-3; 14.4 µM (inactive) in the assay on HOP-62; 6.17 µM (inactive) in the assay on CAKI-1; 18.7 µM (inactive) in the assay with HT-29; 8.49 µM in the assay with HCT-15; 11.4 µM (inactive) with IGROV-1. The GI50 in the assay on Hs-578T was 37.7 µM (inactive); in the assay on SK-MEL-2, 18.2 µM (inactive); in the assay with A549, 10.8 µM (inactive); in the assay with HCC 2998, 21.9 µM (inactive); in the assay with KM12, 14.8 µM (inactive); in the assay with OVCAR-8, 24.4 µM (inactive). Moreover, the GI50 with SW-620 is 12.9 µM (inactive).

Turning to `COc1ccc(Nc2nc(N)c(C(=O)c3ccccc3)s2)cc1`, the GI50 with HOP-92 was 33.6 µM (inactive); with RPMI-8226, 0.0681 µM (active); in the assay with MOLT-4, < 0.0238 µM (active); with SF-295, 0.0164 µM (active); in the assay with SK-MEL-5, 0.0689 µM (active); in the assay with Malme-3M, 45.2 µM (inactive). In addition, the GI50 with SK-OV-3 is 0.0865 µM (active); in the assay on HOP-62, 16.7 µM (inactive); in the assay with CAKI-1 it was 0.0342 µM (active); in the assay on HT-29, 0.0162 µM (active); in the assay on HCT-15, 0.0471 µM; with IGROV-1, 0.273 µM (active). Besides, the GI50 in the assay on Hs-578T is 0.0826 µM (active); in the assay with SK-MEL-2, 0.054 µM (active); in the assay with A549, 0.152 µM (active); with HCC 2998, 0.227 µM (active); in the assay on KM12 it was 0.143 µM (active); with OVCAR-8 it was 0.139 µM (active). In addition, the GI50 in the assay on SW-620 is 0.0197 µM (active).

The record behind these values is ChEMBL document CHEMBL1201862, “PubChem BioAssay data set” (2004).
